These results are taken from patent publication US20250073234A1, “COMBINATION THERAPIES INCLUDING PARP1 INHIBITORS” (Cornell University, priority 2022, published 2025).

In one experiment the test system is AP-1. The experiment can be described thus: AP-1-driven luciferase reporter in WPMY-1 cells. The experiment is classed as cell-based, human. The settings on record: lactate 48 h. A general note: A reporter such as luciferase makes a cellular process visible.
The subject of experiment [1] is WPMY-1 cells. The experiment can be described thus: ATAC-seq chromatin accessibility in WPMY-1 cells. The experiment is classed as cell-based, human. The settings on record: lactate-treated WPMY-1 cells, 48 h. Here is the method: The cell pellet was resuspended in 50 μl lysis buffer and then spun down 500×g for 10 minutes at 4° C. The nuclei pellet was resuspended into 50 μl transposition reaction mixture containing Tn5 transposase from Nextera DNA Library Prep Kit (Illumina) and incubated at 37° C. for 30 minutes. Then the transposase-associated DNA was purified using MinElute PCR purification kit (QIAGEN). To amplify the library, the DNA was first amplified for 5 cycles using indexing primer from Nextera kit and NEBNext High-Fidelity 2×PCR master mix. To reduce the PCR amplification bias, 5 μl of amplified DNA after the first 5 cycles was used to do qPCR of 20 cycles to decide the number of cycles for the second round of PCR. Usually, the maximum cycle of the second round of PCR is 5 cycles. Then the total amplified DNA was size selected to fragments less than 800 bp using SPRI beads. Quantification of the ATAC-seq library was done with QuBit. The size of the pooled library was examined by TapeStation. Barcoded ATAC-seq libraries were pooled and paired end sequenced (sX75) on the Illumina NextSeq 500 using the High output V2.5 kit (Illumina Inc., San Diego, CA).
Peaks were annotated with ChipSeeker R package. […].

Experiment [2] deals with WPMY-1 cells. As to the kind of experiment: Intracellular NAD levels in WPMY-1 cells. The format is cell-based, human. The conditions noted are these: stromal fibroblasts treated with lactate vs untreated. On the procedure:
Quantification was carried out using the NAD/NADH quantification colorimetric kit (Cat. No. MAK037, Sigma) according to the manufacturer's protocol. At least three independent measurements were carried out.

The next experiment has as its system PARP-1. As to the kind of experiment: Poly(ADP-ribosyl)ation in WPMY-1 cells (immunoblot, immunoprecipitation). The experiment is classed as cell-based, human. Here is the method: Cells for protein analysis were lysed in RIPA buffer (20 mM Tris-HCl, […], 2 mM EDTA, 1% Triton-X, 10% glycerol, 0.1% SDS, and 0.5% sodium deoxycholate) with phosphatase and protease inhibitors. For immunoprecipitations, cells were lysed in IP lysis buffer (100 mM NaCl, 25 mM Tris, 1% Triton-X, 10% glycerol, with phosphatase and protease inhibitors) and immunoprecipitated with 25 μl of 50% slurry of protein […] beads (Bioworld). Immunoprecipitates were washed three times with lysis buffer, once with high salt (500 mM NaCl), and once more with lysis buffer. Protein concentration in lysates was determined by using Protein Assay Kit (Bio-Rad). Cell extracts and immunoprecipitated proteins were denatured, subjected to SDS-PAGE, transferred to PVDF membranes (GE Healthcare). After blocking with 5% nonfat dry milk in Tris-buffered saline and 0.1% Tween (TBS-T), the membranes were incubated with the specific antibodies (as listed in Key Resources Table) overnight at 4° C. After 2 hours incubation with the appropriate horseradish peroxidase-conjugated antibodies, the immune complexes were detected by chemiluminescence (Thermo Scientific) or Near-infrared fluorescence (LI-COR).
On the technique in general: Immunoblotting shows a protein as a band on a membrane.

Experiment [3] relates to metastatic pancreas cancer. The settings on record: cited from earlier work.
The test system of experiment [4] is hyaluronan (HA) in WPMY-1 cells. The experiment can be described thus: Immunofluorescence for HABP (HA deposition) in WPMY-1 cells. The format is cell-based, human. The settings on record: Olaparib 10 μM + PEGPH20 2.5 μg/ml, 96 h, basal and ADT. Here is the method:
WPMY-1 cells were seeded in coverslides and cultured in DMEN containing 10% FBS (basal conditions) or 10% charcoal stripped FBS (ADT conditions), then the cells were treated with vehicle (DMSO), Olaparib 10 μM, Olaparib 10 μM+PEGPH20 2.5 μg/ml for 96 hours, refreshing media and stimuli at 48 hours. Cells were fixed in PFA 4% for 20 minutes at room temperature, permeabilize and blocked following abcam's immunofluorescence protocol. Then, cells were incubated overnight with Hyaluronic acid binding protein (HABP) at 4° C. Cells were incubated with Alexa conjugated streptavidin and mounted in slides with mowiol. Pictures were taken by Zeiss LSM 710 NLO Confocal Microscope.

Experiment [5] relates to PC3 cells. The experiment can be described thus: Click-iT EdU proliferation of PC3 cells treated with CM from WPMY-1 cells. The format is cell-based, human. The settings on record: Olaparib 10 μM + PEGPH20 2.5 μg/ml or CM incubation with Galunisertib 10 μM. On the procedure: WPMY-1 cells were cultured in DMEN containing 10% FBS (basal conditions) or 10% charcoal stripped FBS (ADT conditions), then the cells were treated with vehicle (DMSO), Olaparib 10 μM, Olaparib 10 μM+PEGPH20 2.5 μg/ml for 96 hours, refreshing media and stimuli at 48 hours, conditioned media (CM) was generated by collecting supernatant on day 4. PC3 cells were seeded in a black-walled well (Thermo Fisher) and serum starved overnight. CM from WPMY-1 cells was added to PC3 for 24 h. PC3 were exposed to EdU incorporation for the last 2 hours. Proliferating cells were detected using Click-iT EdU Alexa fluor 488 (Thermo Fisher) following the manufacturer's instructions. Pictures were taken using EVOS M5000 Imaging System and EdU positive were measured using Fiji (Schindelin et al., 2012).

A further experiment concerns PC3 + WPMY-1 tumors. The experiment can be described thus: Subcutaneous xenograft co-implantation of PC3 and WPMY-1 cells in NSG mice. The format is in vivo, mouse. The conditions noted are these: Olaparib 40 mg/Kg + PEGPH20 0.0375 mg/Kg, twice a week, 2 weeks. Here is the method:
For mouse xenografts using PC3 PCa cells and sgC or sgAP-1 WPMY-1 stromal cells. 7 weeks old NSG mice were surgical castrated and let androgen levels drop for 10 days. Cells were trypsinized washed two times in PBS and resuspend in DMEN. 1×10^6 PC3 and 1×10^6 sgC or sgAP1-A WPMY-1 for each mouse were resuspended in 100 μl DMEM: Matrigel (1:1) and injected subcutaneously into both flanks of immunocompromised NSG mice (PC3+sgC WPMY-1 n=4; PC3+sgAP-1 WPMY-1 n=4). Tumors were allowed to grow for 1 month. Mice were euthanized and tumors were collected and analyzed histologically. For Olaparib treatment in mouse xenografts. PC3 PCa cells and WPMY-1 stromal cells were trypsinized washed two times in PBS and resuspend in DMEN. 1×10^6 PC3 and 1×10^6 WPMY-1 for each mouse were resuspended in 100 μl DMEM: Matrigel (1:1) and injected subcutaneously into both flanks of immunocompromised NSG mice. Tumors were allowed to grow for 14 days, and mouse were randomly divided to receive vehicle, n=10, Olaparib (40 mg/kg, 2 days each week, i.p.), n=10 or Olaparib (40 mg/kg, 2 days each week, i.p.)+_PEGPH20 (0.0375 mg/Kg, 2 days each week, retroorbital injection) n=10. Tumors were measured twice a week. Mice were euthanized 14 days after the initiation of the treatment and tumors were collected and analyzed histologically. For Olaparib treatment in mice, 13 weeks-old male TRAMP^+, n=18, were randomly distributed to receive vehicle, n=9, or Olaparib (40 mg/kg/, 5 days each week, i.p.), n=9. Mice were euthanized 1 month after the initiation of the treatment. Prostate and other organs were collected and analyzed histologically.
Tissues from indicated mice were isolated, fixed in zinc buffered formalin overnight at 4° C., dehydrated, and embedded in paraffin. Sections (5 μm) were stained with hematoxylin and eosin (H&E). For immunohistochemistry, sections were deparaffinized, rehydrated, and then treated for antigen retrieval. […] Stained sections were analyzed with a Zeiss light microscope supplemented with Zen 3.3 Bule edition software.

In experiment [6] the test system is PC3 cells. As to the kind of experiment: Trans-well migration and invasion of PC3 cells co-cultured with pre-treated WPMY-1 cells. The experiment is classed as cell-based, human. The settings on record: Olaparib 10 μM + PEGPH20 2.5 μg/ml, basal and ADT. On the procedure: For co-culture migration and invasion assays, 8×10^4 WPMY-1 cells were plated onto the lower chamber of a 24 well plate in DMEN containing 10% FBS (basal conditions) or 10% charcoal stripped FBS (ADT conditions) and vehicle (DMSO) or Olaparib 10 μM or Olaparib 10 μM+PEGPH20 2.5 μg/ml for 48 hours. 5×10^4 PC3 were seeded in a transwell chamber (Corning Biocoat control inserts) or in a transwell invasion chamber (Corning BioCoat Matrigel Invasion Chambers), both with 8 μm membrane. PC3 were allowed to migrate or invade for 20 hours at 37° C., 5% CO2. Cells were fixed in cold methanol and stained with crystal violet.

Regarding `CC(O)C(=O)O` (stereo not shown) [lactate], the “AP-1-driven luciferase reporter activity” value in the experiment with AP-1 is “repressed an AP-1-driven luciferase reporter”. Moreover, the chromatin accessibility result with WPMY-1 cells [1] was “widespread decrease in chromatin accessibility”. In addition, in the experiment with WPMY-1 cells [2], the “NAD+ levels” value is listed as “lower than in untreated cells”. Besides, in the experiment on PARP-1 (lactate 48 h, immunoprecipitation), the “poly(ADP-ribosyl)ation of c-JUN and c-FOS” value was “impaired the poly(ADP-ribosyl) ation of c-JUN and c-FOS”. Also, the “total poly(ADP-ribosyl)ation levels” value with PARP-1 (lactate-treated WPMY-1 cells) was “reduced total poly(ADP-ribosyl) ation levels”.

B1: PEGPH20: PEGylated Recombinant Human Hyaluronidase, clinical-grade recombinant hyaluronidase (provided by Halozyme Therapeutics) (protein, UniProt P38567 36-490, looked up)
Hyaluronidase PH-20: LNFRAPPVIPNVPFLWAWNAPSEFCLGKFDEPLDMSLFSFIGSPRINATGQGVTIFYVDRLGYYPYIDSITGVTVNGGIPQKISLQDHLDKAKKDITFYMPVDNLGMAVIDWEEWRPTWARNWKPKDVYKNRSIELVQQQNVQLSLTEATEKAKQEFEKAGKDFLVETIKLGKLLRPNHLWGYYLFPDCYNHHYKKPGYNGSCFNVEIKRNDDLSWLWNESTALYPSIYLNTQQSPVAATLYVRNRVREAIRVSKIPDAKSPLPVFAYTRIVFTDQVLKFLSQDELVYTFGETVALGASGIVIWGTLSIMRSMKSCLLLDNYMETILNPYIINVTLAAKMCSQVLCQEQGVCIRKNWNSSDYLHLNPDNFAIQLEKGGKFTVRGKPTLEDLEQFSEKFYCSCYSTLSCKEKADVKDTDAVDVCIADGVCIDAFLKPPMETEEPQIFYNASPSTLS
modifications: PEGylated
For B1, in [3], the “primary endpoint of phase 3 trial” value is on record as “failed to meet the primary endpoint”. For the same molecule, the “HA deposition in response to Olaparib” value in [4] is on record as “efficiently degraded HA deposition”. Further, the “Olaparib-induced proliferation (EdU)” value with PC3 cells [5] is reported as “blocked Olaparib-induced proliferation in stromal cells”. Further, the “anti-tumor activity of the combination (tumor volume)” value in the experiment with PC3 + WPMY-1 tumors is on record as “enhanced Olaparib anti-tumor activity”. In the experiment with PC3 cells [6], the “Olaparib-enhanced migration of PC3 cells” value was “completely blocked the enhanced migration of PC3 cells”.
